Data reported in PubChem BioAssay (NCI).
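Briefly, cells in 96-well plates were exposed to five compound concentrations for 48 h, and endpoints were estimated by linear interpolation. Here, GI50 denotes the concentration required for 50% inhibition of growth. Definition used: TGI = concentration required for complete inhibition of growth.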

Assays:
Experiment in all cases: DTP human tumour cell line panel, 48 h
MDA-N = tested on: MDA-N
HOP-18 NSCLC = tested on: HOP-18 NSCLC
DMS 273 small cell lung = tested on: DMS 273 small cell lung
KM20L2 colon = tested on: KM20L2 colon
SNB-78 CNS = tested on: SNB-78 CNS
M19-MEL melanoma = tested on: M19-MEL melanoma
DLD-1 colon = tested on: DLD-1 colon
XF 498 CNS = tested on: XF 498 CNS
RXF-631 renal = tested on: RXF-631 renal

Compound | TGI (MDA-N) | TGI (HOP-18 NSCLC) | TGI (DMS 273 small cell lung) | TGI (KM20L2 colon) | TGI (SNB-78 CNS) | TGI (M19-MEL melanoma) | TGI (DLD-1 colon) | TGI (XF 498 CNS) | TGI (RXF-631 renal) | GI50 (MDA-N) | GI50 (DMS 273 small cell lung) | GI50 (KM20L2 colon) | GI50 (SNB-78 CNS) | GI50 (DLD-1 colon)
c1ccc2sc(SCCSc3nc4ccccc4s3)nc2c1 | > 100 µM |  |  |  |  |  |  |  |  |  |  |  |  | 
COC(=O)c1n[nH]c(C)c1N=NN(C)CCC#N | > 100 µM |  |  |  |  |  |  |  |  |  |  |  |  | 
CC1=CC(=O)C2=C(C)CCC3C(C)C(=O)OC3C12 (configuration not stated) | > 100 µM |  |  |  |  |  |  |  |  |  |  |  |  | 
COC(=O)CC(NC(=O)OCc1ccccc1)C(C(C)=O)C(=O)OCc1ccccc1 (configuration not stated) |  | > 31.6 µM | > 31.6 µM | > 31.6 µM | > 31.6 µM | > 31.6 µM | > 31.6 µM |  |  |  |  |  |  | 
C[C@@H](NC1CCCC[C@H]1O)c1ccccc1 (some centres not stated) |  | > 100 µM | > 100 µM | > 100 µM | > 100 µM | > 100 µM | > 100 µM | > 100 µM |  |  |  |  |  | 
Cc1ccc(S(=O)(=O)OCCn2cnc3nc(NC(=O)c4ccccc4)[nH]c(=O)c32)cc1 |  | > 100 µM | > 100 µM | > 100 µM | > 100 µM | > 100 µM | > 100 µM |  |  |  |  |  |  | 
COC(=O)CCC(NC(=S)N/N=C(\C)c1cnc2ccccc2n1)C(=O)OC (configuration not stated) |  | > 100 µM | > 100 µM | 46 µM | > 100 µM |  | > 100 µM | > 100 µM | > 100 µM |  |  |  |  | 
C/C(=C1/N=C(c2cc([N+](=O)[O-])ccc2Cl)N(c2cccc(C)c2)C1=O)c1cc2ccccc2oc1=O |  | > 100 µM | > 100 µM | > 100 µM | > 100 µM | > 100 µM | > 100 µM | 81.2 µM | > 100 µM |  |  |  |  | 
N#CCCN(c1ccc(C=Nc2ccccc2)cc1)S(=O)(=O)c1ccccc1 |  |  | > 100 µM |  | > 100 µM | > 100 µM | > 100 µM | > 100 µM |  |  |  |  |  | 
Cn1cc(C(=O)c2ccccc2)c2ccccc2c1=O |  |  | > 100 µM |  |  | > 100 µM | > 100 µM | > 100 µM |  |  |  |  |  | 
CN1c2ccccc2N(C(=O)c2ccc([N+](=O)[O-])cc2)C(CC(=O)O)c2cccn21 (configuration not stated) |  |  | > 100 µM | > 100 µM | > 100 µM | > 100 µM | > 100 µM | > 100 µM |  |  |  |  |  | 
Nc1ncnc2c1ncn2[C@]1(CO)C=C(CO)C(O)C1O (some centres not stated) |  | > 100 µM | > 100 µM | > 100 µM | > 100 µM |  | > 100 µM | > 100 µM | > 100 µM |  |  |  |  | 
COC(=O)C(C(=O)C(=O)Nc1c(C)cccc1C)c1cnc2ccccc2n1 (configuration not stated) |  | > 100 µM | > 100 µM | > 100 µM | > 100 µM |  |  | > 100 µM | > 100 µM |  |  |  |  | 
CC(=O)OCC1OC(n2cc(F)c(=O)[nH]c2=O)C(NC(=O)N(CCCl)N=O)C(OC(C)=O)C1OC(C)=O (configuration not stated) |  | > 100 µM | > 100 µM | > 100 µM | > 100 µM | > 100 µM | > 100 µM | > 100 µM |  |  |  |  |  | 
Cn1c2c(c3ccccc31)CCN(CCCCN1CCCCC1)C2=O |  | > 100 µM | > 100 µM | > 100 µM | > 100 µM | > 100 µM | > 100 µM | > 100 µM | > 100 µM |  |  |  |  | 
CN1C(=O)CCC1(O)C1C=CC=CC1 (configuration not stated) |  |  | > 100 µM | > 100 µM | > 100 µM | > 100 µM | > 100 µM | > 100 µM | > 100 µM |  |  |  |  | 
c1cc(NNc2cccc(-c3nn[nH]n3)c2)cc(-c2nn[nH]n2)c1 | > 100 µM |  |  |  |  |  |  |  |  |  |  |  |  | 
CC1=Nc2ccccc2S/C1=C(/C)NNS(=O)(=O)c1ccc(C)cc1 |  | > 100 µM | > 100 µM | > 100 µM | > 100 µM | > 100 µM |  |  | > 100 µM |  |  |  |  | 
O=C1CSCc2sccc21 | > 100 µM |  |  |  |  |  |  |  |  |  |  |  |  | 
COc1ccc(NC(=O)C(=O)c2c(O)c3ccc(O)cc3oc2=O)c([N+](=O)[O-])c1 |  |  | > 100 µM | > 100 µM |  | > 100 µM | > 100 µM |  | > 100 µM |  |  |  |  | 

Compound | TGI (MDA-N) | TGI (HOP-18 NSCLC) | TGI (DMS 273 small cell lung) | TGI (KM20L2 colon) | TGI (SNB-78 CNS) | TGI (M19-MEL melanoma) | TGI (DLD-1 colon) | TGI (XF 498 CNS) | TGI (RXF-631 renal) | GI50 (MDA-N) | GI50 (DMS 273 small cell lung) | GI50 (KM20L2 colon) | GI50 (SNB-78 CNS) | GI50 (DLD-1 colon)
O=C(/C=C/c1cc(Cl)cc(Cl)c1O)c1cccc(O)c1 |  | > 100 µM | > 100 µM | > 100 µM | > 100 µM | 68.7 µM | > 100 µM |  |  |  |  |  |  | 
O=C(NCCCCCCCCCCCCNC(=O)c1cccc2ccccc12)c1cccc2ccccc12 |  | > 100 µM | > 100 µM | > 100 µM | > 82.3 µM | > 100 µM | > 100 µM | > 75.8 µM | > 100 µM |  |  |  |  | 
CC(C)c1[nH]nc(C(N)=O)c1N=NN(C)C | > 100 µM |  |  |  |  |  |  |  |  |  |  |  |  | 
COc1ccc2c(c1OC)C[C@@H]1c3c(cc4c(c3-2)OCO4)CCN1C | > 100 µM |  |  |  |  |  |  |  |  |  |  |  |  | 
O=C1NC(Cc2ccc(O)cc2)C(=O)N2CCCC12 (configuration not stated) |  | > 100 µM | > 100 µM | > 100 µM | > 100 µM | > 100 µM | > 100 µM |  | > 100 µM |  |  |  |  | 
Cc1nc(-n2nc(-c3ccccc3)cc2-c2ccccc2)sc1C(=O)/C=C/c1ccc(/C=C/C(=O)c2sc(-n3nc(-c4ccccc4)cc3-c3ccccc3)nc2C)cc1 |  |  | 44.9 µM | 36.4 µM | 99.8 µM | 63 µM | 44.8 µM | 41.4 µM | 78.9 µM |  |  |  |  | 
COc1cc(Nc2nc3cc(N)cc(N)c3nc2-c2ccccc2)cc(OC)c1OC | 31.3 µM |  |  |  |  |  |  |  |  | 10.5 µM |  |  |  | 
N.N.N.N.N.[Co+3].[I-].[N-]=[N+]=[N-] |  |  | > 100 µM | > 100 µM | > 100 µM |  | > 100 µM |  |  |  | > 100 µM | > 100 µM | > 100 µM | > 100 µM
O=C(N/C(=C\c1ccc(Cl)cc1)c1nc2ccccc2[nH]1)c1ccccc1 |  | 50.3 µM | 42.9 µM | 30.8 µM | 85.4 µM | 34.7 µM | 52.2 µM | 36.9 µM |  |  |  |  |  | 
CC(C)(Br)C(=O)N1CCN(C(c2ccccc2)c2ccccc2)CC1 | > 100 µM |  |  |  |  |  |  |  |  |  |  |  |  | 
COc1cc2c(cc1OC)[C@@H](Nc1ccc(C#N)cc1)C1COC(=O)[C@@H]1C2c1cc(OC)c(O)c(OC)c1 (some centres not stated) | > 100 µM | 95 µM | 1.9 µM | 95 µM | 95 µM | 95 µM | 9.29 µM |  |  |  |  |  |  | 
CN(CCN1C(=O)c2cc([N+](=O)[O-])cc3cc([N+](=O)[O-])cc(c23)C1=O)CCN1C(=O)c2cc([N+](=O)[O-])cc3cc([N+](=O)[O-])cc(c23)C1=O |  | > 100 µM | 18.4 µM | > 33.5 µM | 5.91 µM | 4.4 µM | 18.8 µM | 23.1 µM |  |  |  |  |  | 
CN(C)C=Nc1ccn(CCO)c(=O)n1 |  | > 100 µM | > 100 µM | > 100 µM | > 100 µM | > 100 µM | > 100 µM |  | > 100 µM |  |  |  |  | 
COc1ccc(C/C(=N/O)C(=O)NCCc2cc(Br)c(OCCCN(C)C)c(Br)c2)cc1Br |  | 0.0986 µM | 7.61 µM | 40.6 µM | 68.4 µM | 33.8 µM | 25.3 µM | 25.6 µM |  |  |  |  |  | 
Cc1c(Cl)cccc1NC(=O)C(=O)C(C(=O)c1ccccc1-c1ccccc1)C1OC(=O)c2ccccc21 (configuration not stated) |  |  | 77 µM | 51.4 µM | > 100 µM | 34.8 µM | 49.1 µM | 29.3 µM | 71.6 µM |  |  |  |  | 
COc1ccc(/C=C(/C#N)C(N)=O)c(OC)c1 | 52.6 µM |  |  |  |  |  |  |  |  |  |  |  |  | 
Cc1cn(C2CC(O)C(COC(=O)c3ccccc3)O2)c(=O)[nH]c1=O (configuration not stated) |  | > 100 µM | > 100 µM | > 100 µM | > 100 µM | > 100 µM | > 100 µM | > 100 µM | > 100 µM |  |  |  |  | 
CCC(C)CCOC(=O)c1ccc(N=Cc2ccc(C=Nc3ccc(C(=O)OCCC(C)CC)cc3)cc2)cc1 (configuration not stated) |  | > 100 µM | > 100 µM | > 100 µM | > 100 µM |  | > 100 µM |  |  |  |  |  |  | 
Cc1cc(NCCCCCCCCNc2cc(C)nc3cc(N)ccc23)c2ccc(N)cc2n1 |  |  | 28.9 µM | 48.8 µM |  | 45.3 µM | > 100 µM |  |  |  |  |  |  | 
COC(=O)C(Cc1cc(OC)c(OC)c(OC)c1)C(=O)OC |  |  | > 320 µM | > 320 µM |  | > 320 µM | > 320 µM | > 320 µM | > 320 µM |  |  |  |  | 
